The values that follow come from ChEMBL document CHEMBL1268960, “Discovery of cell-active phenyl-imidazole Pin1 inhibitors by structure-guided fragment evolution” (Bioorg Med Chem Lett, 2010).

For assay [1], the target named is T1, Peptidyl-prolyl cis-trans isomerase NIMA-interacting 1 (Homo sapiens, UniProt Q13526). As to the kind of experiment: Inhibition of Pin1 by PIn1 PPIase assay.
The subject of assay [2] is PC-3. As to the kind of experiment: Growth inhibition of serum starved human PC3 cells. The assay is classed as functional.
Assay [3] has as its system PC-3. Description: Inhibition of cyclin E1 expression in serum starved human PC3 cells. In kind it is functional, cell-based.
Assay [4] addresses T1, Peptidyl-prolyl cis-trans isomerase NIMA-interacting 1. Description: Inhibition of Pin1-mediated cyclin D1 expression in serum starved human PC3 cells. The assay is classed as cell-based, PC-3.
The target of assay [5] is Peptidyl-prolyl cis-trans isomerase A (Homo sapiens) (UniProt P62937). As to the kind of experiment: Inhibition of cyclophilin A.
Peptidyl-prolyl cis-trans isomerase A (Homo sapiens), sequence (P62937 whole entry, looked up): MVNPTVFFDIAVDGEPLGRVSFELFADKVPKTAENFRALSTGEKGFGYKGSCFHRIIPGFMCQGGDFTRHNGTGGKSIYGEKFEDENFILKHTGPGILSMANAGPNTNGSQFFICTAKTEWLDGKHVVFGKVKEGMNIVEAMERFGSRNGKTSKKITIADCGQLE
The target in assay [6] is Peptidyl-prolyl cis-trans isomerase FKBP1A (Homo sapiens) (UniProt P62942). As to the kind of experiment: Inhibition of FKBP12.
Peptidyl-prolyl cis-trans isomerase FKBP1A (Homo sapiens), sequence (P62942 whole entry): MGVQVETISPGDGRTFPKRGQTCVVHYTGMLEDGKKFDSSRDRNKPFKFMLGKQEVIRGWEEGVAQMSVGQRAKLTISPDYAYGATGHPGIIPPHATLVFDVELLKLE
Assay [7] addresses T1, Peptidyl-prolyl cis-trans isomerase NIMA-interacting 1. As to the kind of experiment: Inhibition of Pin1 in serum starved human PC3 cells assessed as reduction in insulin-induced p7)S6 kinase phosphorylation. In kind it is cell-based, PC-3.
Assay [8] has the same target. As to the kind of experiment: Binding affinity to Pin1 by isothermal calorimetry.

Each structure is given as a SMILES string. Activity calls are given as the source filed them. The rule behind the calls is not given here.

T1 sequence (Q13526 whole entry): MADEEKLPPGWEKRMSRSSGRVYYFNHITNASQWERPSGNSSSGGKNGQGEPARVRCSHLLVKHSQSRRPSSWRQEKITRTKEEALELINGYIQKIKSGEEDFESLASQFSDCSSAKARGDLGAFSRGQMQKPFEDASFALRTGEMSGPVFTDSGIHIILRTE

For `O=C(O)c1[nH]c(-c2cccc(Cl)c2)nc1C(=O)N1CCOCC1`, the IC50 in assay [1] was 21 µM. The GI50 with PC-3 [2] was greater than 200 µM.

For `NC(=O)CN(Cc1nc2ccccc2s1)C(=O)c1nc(-c2ccccc2)[nH]c1C(=O)O`, the IC50 in assay [1] was 0.52 µM. For the same compound, in the assay on PC-3 [2], the GI50 is greater than 80 µM.

As for `CNC(=O)c1nc(-c2ccccc2)[nH]c1C(=O)O`, the IC50 in assay [1] amounted to 80 µM.

With `Cc1cccc(-c2nc(C(=O)O)c(C)[nH]2)c1`, the IC50 in assay [1] is 34 µM.

The compound `CCNC(=O)c1nc(-c2ccccc2)[nH]c1C(=O)O` registered a half-inhibitory concentration (IC50) in assay [1] of 140 µM.

As for `O=C(O)c1nc(-c2ccccc2)[nH]c1C(=O)O`, the IC50 in assay [1] is 1.46 µM.

`COc1ccccc1-c1ccc(C(=O)O)o1` showed an IC50 in assay [1] greater than 1000 µM.

`Cc1nc(-c2cccc(C(F)(F)F)c2)[nH]c1C(=O)O` had an IC50 in assay [1] of 23 µM.

For the compound `COc1cccc(-c2nc(C)c(C(=O)O)[nH]2)c1`, half-maximal inhibition in assay [1] (IC50) required 270 µM.

For `O=C(O)c1[nH]c(-c2ccccc2)nc1C(=O)N(CCc1ccccc1)Cc1ccccc1`, the inhibition entry (with PC-3 [3]; in assay [5]; in assay [6]) was “inactive” throughout. Also, the IC50 in assay [1] was found to be 0.83 µM. Moreover, the EC50 in assay [4] is 10 µM; in assay [7], 30 µM. Besides, in the assay on PC-3 [2], halving of growth (GI50) required 13 µM.

Turning to `O=C(O)c1nc(-c2cccc(F)c2)[nH]c1C(=O)O`, in assay [1], it took 0.32 µM to reach half-maximal inhibition (IC50). In addition, the Kd in assay [8] is 0.52 µM.

On to `CCOC(=O)CN(Cc1ccccc1)C(=O)c1nc(-c2ccccc2)[nH]c1C(=O)O`, for which inhibition in assay [1] was half-maximal at 8 µM (IC50). Also, the GI50 in the assay on PC-3 [2] was greater than 200 µM.

`O=C(O)c1[nH]c(-c2ccccc2)nc1C(=O)N1CCOCC1`: the GI50 with PC-3 [2] was greater than 200 µM.

As for `Cc1nc(-c2cccc(C#N)c2)[nH]c1C(=O)O`, the IC50 in assay [1] was 19 µM.

With `CN(CC(=O)O)C(=O)c1nc(-c2ccccc2)[nH]c1C(=O)O`, in assay [1], the midpoint of inhibition, the IC50, lay at 9.4 µM.

Compound `CN(Cc1ccccc1)C(=O)c1[nH]c(-c2cccc(Cl)c2)nc1C(=O)O` returned a concentration for 50% growth inhibition (GI50) in the assay on PC-3 [2] of 56 µM.

In assay [1], `O=C(O)c1nc(-c2ccccc2)[nH]c1C(=O)N(Cc1ccccc1)Cc1ccccc1` gave a 50% inhibitory concentration (IC50) of 4 µM. Moreover, in the assay with PC-3 [2], the GI50 stood at 21 µM.

In turn, `O=C(O)c1nc(-c2ccccc2)[nH]c1C(=O)NCc1ccccc1` had an IC50 in assay [1] of 220 µM.

Turning to `CN(CC(N)=O)C(=O)c1nc(-c2ccccc2)[nH]c1C(=O)O`, in the assay on PC-3 [2], the GI50 was greater than 200 µM.

Turning to `O=C(O)c1[nH]c(-c2cccc(Cl)c2)nc1C(=O)N(Cc1ccccc1)Cc1ccccc1`, inhibition in assay [1] was half-maximal at 1.4 µM (IC50). In the assay with PC-3 [2], the GI50 is 18 µM. The compound further returned a Kd in assay [8] of 1.4 µM.

As for `CN(Cc1ccccc1)C(=O)c1nc(-c2ccccc2)[nH]c1C(=O)O`, the IC50 in assay [1] was 31 µM. In the assay with PC-3 [2], the concentration for 50% growth inhibition (GI50) is greater than 200 µM.
